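Tested at 5 concentrations; 48 h exposure; 96-well plates; endpoints linearly interpolated, else capped at highest concentration. GI50 = concentration required for 50% inhibition of growth.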 Calls of active or inactive are those of the source. No stated cut-off is given here; in the data, active = GI50 up to about 1.1 µM and inactive = higher.
Experiments:
Experiment in all cases: inhibition of tumour cell growth, NCI panel, 48 h
786-0 = system: 786-0
A549 = system: A549
COLO 205 = system: COLO 205
DU-145 = system: DU-145
HCC 2998 = system: HCC 2998
HCT-15 = system: HCT-15
IGROV-1 = system: IGROV-1
LOX IMVI = system: LOX IMVI
MDA-MB-435 = system: MDA-MB-435
Malme-3M = system: Malme-3M
OVCAR-5 = system: OVCAR-5
OVCAR-8 = system: OVCAR-8
RXF 393 = system: RXF 393
SF-295 = system: SF-295
SK-MEL-28 = system: SK-MEL-28
SK-MEL-2 = system: SK-MEL-2
SNB-19 = system: SNB-19
SNB-75 = system: SNB-75
U-251 = system: U-251
UO-31 = system: UO-31

Compound | GI50 (786-0) | GI50 (A549) | GI50 (COLO 205) | GI50 (DU-145) | GI50 (HCC 2998) | GI50 (HCT-15) [µM] | GI50 (IGROV-1) | GI50 (LOX IMVI) | GI50 (MDA-MB-435) | GI50 (Malme-3M) | GI50 (OVCAR-5) | GI50 (OVCAR-8) | GI50 (RXF 393) | GI50 (SF-295) | GI50 (SK-MEL-28) | GI50 (SK-MEL-2) | GI50 (SNB-19) | GI50 (SNB-75) | GI50 (U-251) | GI50 (UO-31)
CCP(=O)(OC)C1=CCN(C(=O)OCC[Si](C)(C)C)CC1 (stereo not given) | > 100 µM (inactive) | > 100 µM (inactive) | > 100 µM (inactive) | > 100 µM (inactive) | > 100 µM (inactive) | > 100 | > 100 µM (inactive) | > 100 µM (inactive) | > 100 µM (inactive) | > 100 µM (inactive) | > 100 µM (inactive) | > 100 µM (inactive) | > 100 µM (inactive) | > 100 µM (inactive) | > 100 µM (inactive) | > 100 µM (inactive) | > 100 µM (inactive) | > 100 µM (inactive) | > 100 µM (inactive) | > 100 µM (inactive)
CC1=C(\C=C/C(C)=C/C=C/C(C)=C/C=C/C=C(C)\C=C\C=C(C)/C=C/C2=C(C)CCCC2(C)C)C(C)(C)CCC1 | > 100 µM (inactive) | > 10 µM (inactive) | 52.6 µM (inactive) | > 100 µM (inactive) | > 100 µM (inactive) | > 100 | > 100 µM (inactive) | > 100 µM (inactive) | 68.9 µM (inactive) | > 100 µM (inactive) | > 100 µM (inactive) | > 100 µM (inactive) | 33 µM (inactive) | > 100 µM (inactive) | 46.5 µM (inactive) | > 100 µM (inactive) | > 100 µM (inactive) | > 100 µM (inactive) | 56.2 µM (inactive) | > 100 µM (inactive)
CCOC(=O)/C=C(\C(=O)OCC)n1ccc(=O)n(Cc2cn(CCCCOC(C)=O)nn2)c1=O | 7.66 µM (inactive) | 21.9 µM (inactive) | 2.89 µM (inactive) | 20.5 µM (inactive) | 21.6 µM (inactive) | 7.01 | 19.5 µM (inactive) | 14.9 µM (inactive) | 5 µM (inactive) | 2.18 µM (inactive) | 14.3 µM (inactive) | 7.01 µM (inactive) | 12 µM (inactive) | 35.9 µM (inactive) | 8.17 µM (inactive) | 18.8 µM (inactive) | > 39.7 µM (inactive) | 19.5 µM (inactive) | 16.1 µM (inactive) | 15.3 µM (inactive)
COc1cc(C2c3cc4c(cc3[C@@H](Nc3ccc(C#N)cc3)C3COC(=O)[C@H]23)OCO4)cc(OC)c1O (stereo not given in full) | 0.724 µM (active) | 0.166 µM (active) | 6.38 µM (inactive) | 0.273 µM (active) | 0.0693 µM (active) | 2.31 | 6.78 µM (inactive) | 1.08 µM (active) | 8.77 µM (inactive) | 1.29 µM (inactive) | 5.64 µM (inactive) | 0.975 µM (active) | 1.41 µM (inactive) | 0.767 µM (active) | 6.97 µM (inactive) | 14.6 µM (inactive) | 1.39 µM (inactive) | 2.6 µM (inactive) | 1.43 µM (inactive) | 1.62 µM (inactive)
CN(C)c1ccc(/C=C2\N=C(c3ccccc3)N(c3nc4ccc(Sc5ccccc5)cc4[nH]3)C2=O)cc1 | 42.2 µM (inactive) | 41.5 µM (inactive) | 21.6 µM (inactive) | 77.4 µM (inactive) | 17.4 µM (inactive) | 36.5 | 61.5 µM (inactive) | 45.2 µM (inactive) | 16.7 µM (inactive) | 99.8 µM (inactive) | 41.8 µM (inactive) | 43 µM (inactive) | 50.2 µM (inactive) | 23.6 µM (inactive) | 57.1 µM (inactive) | 20.8 µM (inactive) | 49.1 µM (inactive) | 53.2 µM (inactive) | 47.9 µM (inactive) | 59.3 µM (inactive)
COc1cc(C2SCC(=O)N2c2ccc(NC(=O)c3ccc(N4C(=O)CSC4c4cc(OC)c(OC)c(OC)c4)cc3)cc2)cc(OC)c1OC (stereo not given) | 70 µM (inactive) | > 100 µM (inactive) | > 100 µM (inactive) | > 100 µM (inactive) | > 100 µM (inactive) | 38.5 | 32.4 µM (inactive) | 31.8 µM (inactive) | 20.6 µM (inactive) | 79.1 µM (inactive) | 95.1 µM (inactive) | 40.3 µM (inactive) | 58.6 µM (inactive) | 29.3 µM (inactive) | 42.5 µM (inactive) | 91.6 µM (inactive) | 84.1 µM (inactive) | 22.2 µM (inactive) | 49.3 µM (inactive) | 67.1 µM (inactive)
COc1ccc(OC)c2sc(N3C(=O)/C(=C/c4ccc(Cl)cc4)N=C3c3ccccc3)nc12 | 73.3 µM (inactive) | > 100 µM (inactive) | > 100 µM (inactive) | > 100 µM (inactive) | 80.2 µM (inactive) | 98.4 | 85.9 µM (inactive) | 34.2 µM (inactive) | 30.8 µM (inactive) | > 100 µM (inactive) | > 100 µM (inactive) | 60.3 µM (inactive) | 78.5 µM (inactive) | 76.6 µM (inactive) | > 100 µM (inactive) | > 100 µM (inactive) | > 100 µM (inactive) | 89.3 µM (inactive) | 40.7 µM (inactive) | > 100 µM (inactive)
O=P1(O)c2ccccc2Nc2cc(C(F)(F)F)ccc21 | > 100 µM (inactive) | > 100 µM (inactive) | > 100 µM (inactive) | > 100 µM (inactive) | > 100 µM (inactive) | > 100 | > 100 µM (inactive) | > 100 µM (inactive) | > 100 µM (inactive) | > 100 µM (inactive) | > 100 µM (inactive) | > 100 µM (inactive) | > 100 µM (inactive) | > 100 µM (inactive) | > 100 µM (inactive) | > 100 µM (inactive) | > 100 µM (inactive) | > 100 µM (inactive) | > 100 µM (inactive) | > 100 µM (inactive)
c1ccc(/C(=N\Nc2nc3ccccc3[nH]2)c2ccccn2)cc1 | 0.31 µM (active) | 0.596 µM (active) | < 0.0207 µM (active) | 2.13 µM (inactive) | 1.73 µM (inactive) | 0.277 | 0.262 µM (active) | 0.516 µM (active) | 0.755 µM (active) | 0.687 µM (active) | 0.733 µM (active) | 0.254 µM (active) | 0.716 µM (active) | 1.69 µM (inactive) | 1.14 µM (inactive) | 4.09 µM (inactive) | 1.22 µM (inactive) | 0.531 µM (active) | 0.407 µM (active) | 0.291 µM (active)
Cc1ccc(/C=C2\CCC/C(=C\c3ccc(O)c(CN4CCCCC4)c3)C2=O)cc1 | 3.72 µM (inactive) | 9.4 µM (inactive) | 5.2 µM (inactive) | 4.91 µM (inactive) | 4.46 µM (inactive) | 3.02 | 8.02 µM (inactive) | 3.18 µM (inactive) | 3.41 µM (inactive) | 17.3 µM (inactive) | 17.4 µM (inactive) | 2.97 µM (inactive) | 14.1 µM (inactive) | 10.7 µM (inactive) | 15.7 µM (inactive) | 19.9 µM (inactive) | 16.2 µM (inactive) | 6.49 µM (inactive) | 5.27 µM (inactive) | 11.2 µM (inactive)
Cc1ccc(C)n1-c1ccccc1C1SCCCS1 | > 100 µM (inactive) | 98.9 µM (inactive) | > 100 µM (inactive) | > 100 µM (inactive) | > 100 µM (inactive) | > 100 | > 100 µM (inactive) | > 100 µM (inactive) | > 100 µM (inactive) | > 100 µM (inactive) | > 100 µM (inactive) | > 100 µM (inactive) | > 100 µM (inactive) | 54.1 µM (inactive) | > 100 µM (inactive) | > 100 µM (inactive) | > 100 µM (inactive) | 84.5 µM (inactive) | > 100 µM (inactive) | > 100 µM (inactive)
C=C1C(=O)OC2C1CCC(C)C1C=CC(=O)C12C (stereo not given) | 1.85 µM (inactive) | 7.76 µM (inactive) | 2.17 µM (inactive) | 2.53 µM (inactive) | 12 µM (inactive) | 1.82 | 6.14 µM (inactive) | 1.93 µM (inactive) | 1.73 µM (inactive) | 2.5 µM (inactive) | 4.53 µM (inactive) | 2.06 µM (inactive) | 1.84 µM (inactive) | 6.81 µM (inactive) | 2.05 µM (inactive) | 4.39 µM (inactive) | 14.7 µM (inactive) | 8.15 µM (inactive) | 11.9 µM (inactive) | 4.75 µM (inactive)
